Measurements: patent US20100184946A1, “Preparation of Fine Particles” (priority 2007, published 2010)

Assay: Particle form by X-ray powder diffraction (XRPD)
Format: physicochemical
Details: starting material before the process; product after freeze drying
Procedure: The physical form of the paclitaxel particles was measured using X-ray powder diffraction method (“XRPD”) before the process (i.e. the starting material) and again after the product of the process had been freeze dried.

CC(=O)O[C@H]1C(=O)[C@@]2(C)[C@H]([C@H](OC(=O)c3ccccc3)[C@]3(O)C[C@H](OC(=O)[C@H](O)[C@@H](NC(=O)c4ccccc4)c4ccccc4)C(C)=C1C3(C)C)[C@]1(OC(C)=O)CO[C@@H]1C[C@@H]2O [paclitaxel]
physical form (XRPD): crystal structure ordering
